Measured values from US20240336615A1, “CYCLOPROPYL-(HETERO)ARYL-SUBSTITUTED ETHYL-SULFOXIME-PYRIDINE DERIVATIVES” (Boehringer Ingelheim Vetmedica GmbH, priority 2023, published 2024).

Experiments:
adult C. felis fleas [1] = experiment: Ingestion activity against adult Ctenocephalides felis, membrane feeding, alternative method (Examples 7 and 13)
Description: Selected compounds of formula (I), (Ia) and (Ib) and compound “125” of WO 2021/033141 dissolved in 100% DMSO are diluted in bovine blood with sodium heparin anti-coagulant. The resulting formulation is offered via an artificial membrane feeding system to approximately 15 adult C. felis fleas previously dispensed into 24-well plates. The plates are then incubated in a double-chambered device. Visual evaluation for mortality is performed at 48 hours post-treatment. Compound efficacy at a given dose is expressed as percentage mortality and determined by normalization to positive and negative controls. A dose response series is implemented to determine EC50 values.
Compounds of formulae (I), (Ia) and/or (Ib) dissolved in 100% DMSO are diluted in bovine blood with sodium heparin anti-coagulant. The resulting formulation is offered via an artificial membrane feeding system to approximately 15 adult C. felis fleas previously dispensed into 24-well plates. The plates are then incubated in a double-chambered device. Visual evaluation for mortality is performed at 48 hours post-treatment. Compound efficacy at a given dose is expressed as percentage mortality and determined by normalization to positive and negative controls. A dose response series is implemented to determine EC50 values.

adult C. felis fleas [2] = experiment: Ingestion activity against adult Ctenocephalides felis, membrane feeding, motility (Example 6); conditions: 48 h, bovine blood via artificial membrane, 48h post treatment, read-out: EC50 (ingestion activity, % motility reduction)
Description: Compounds of formulae (I), (Ia) and/or (Ib) dissolved in 100% DMSO are added to bovine blood and offered via an artificial membrane feeding system to adult C. felis fleas. The motility of fleas is then visually inspected 48h post treatment. Efficacy is expressed in % motility reduction compared to controls containing blood treated with DMSO only. A dose response series is implemented to determine EC50 values.

Laodelphax striatellus = experiment: Insecticidal test on Laodelphax striatellus (Example 16); format: in vivo; conditions: 192 h, rice seedling dip, 3rd-instar nymphs, 8 days after inoculation, read-out: activity level (corrected mortality rate)
Description: The compounds of formula (I), (Ia) and/or (Ib) of the present invention or salts thereof are separately dispersed in water and diluted to 500 ppm and 50 ppm. Rice plant seedlings are dipped in the dispersion for about 30 seconds. After air dried, the seedlings are put into a separate glass test tube and inoculated with ten 3rd-instar nymphs of Laodelphax striatellus and then the glass test tube is kept in a room at 25° C. 8 days after the inoculation, the numbers of the dead and alive insects are counted. The corrected mortality rate is calculated according to the following formula and the insecticidal activity is evaluated according to the following criteria.

Myzus persicae = experiment: Insecticidal test on Myzus persicae (Example 17); format: in vivo; conditions: 144 h, foliar application on Chinese cabbage, 6 days after application, read-out: control efficacy level (control rate)
Source text: The compounds of formula (I), (Ia) and/or (Ib) of the present invention or salts thereof are separately dispersed in water and diluted to 500 ppm and 50 ppm. Chinese cabbage plants are planted in plastic pots (diameter: 8 cm, height: 8 cm). Aphids (Myzus persicae) are propagated on the plants and then the number of surviving aphids is counted. The dispersion is applied to the foliage of the potted plants. After the plants are air dried, these are kept in a greenhouse. 6 days after the application, the number of the alive insects is counted on the plants. The control rate is calculated according to the following formula and the control efficacy is evaluated according to the following criteria. [formula] • Ta: the number of alive insects before the foliar application in a treated plot • T: the number of alive insects after the foliar application in a treated plot • Ca: the number of alive insects before the foliar application in an untreated plot • C: the number of alive insects after the foliar application in an untreated plot • A: the control rate is 100% • B: the control rate is 90 to 99% • C: the control rate is 80 to 89% • D: the control rate is 50 to 79%

[3] = system: adult Ctenocephalides felis fleas; experiment: Contact activity against adult Ctenocephalides felis (Example 4); conditions: adult C. felis, coated pipe cleaner in vial, 72 hours post-treatment, read-out: EC50 (contact activity, percentage mortality)
Description: Compounds of formulae (I), (Ia) and/or (Ib) dissolved in 100% DMSO are diluted in acetone to a desired concentration. The resulting formulation is used to coat the fibers of a 0.5-inch-long piece of pipe cleaner placed in a glass scintillation vial. The vial is capped with a rubber gasket and filter paper insert. After the acetone has evaporated, ten adult Ctenocephalides felis fleas are added to each vial. The vials are then incubated at 22° C., 80% relative humidity, and 12 hours of light/12 hours of dark until a visual evaluation for mortality is performed at 72 hours post-treatment. Compound efficacy at a given dose is expressed as percentage mortality and adjusted to remove background mortality observed in control vials containing DMSO only. A dose response series of treated vials is implemented to determine EC50 values.

Plutella xylostella = experiment: Insecticidal test on Plutella xylostella (Example 15); format: in vivo; conditions: 144 h, Chinese cabbage seedling dip, 6 days after dip treatment, read-out: activity level (corrected mortality rate)
Description: The compounds of formula (I), (Ia) and/or (Ib) of the present invention or salts thereof are separately dispersed in water and diluted to 500 ppm and 50 ppm. Ten adults of Plutella xylostella are released onto Chinese cabbage seedlings and allowed to lay eggs thereon. 2 days after the release of the adults, the seedling is dipped in the dispersion for about 30 seconds. After air dried, the seedling is kept in a room at 25° C. 6 days after the dip treatment, the numbers of the dead and alive insects are counted. The corrected mortality rate is calculated according to the following formula and the insecticidal activity is evaluated according to the following criteria.

Spodoptera litura = experiment: Insecticidal test on Spodoptera litura (Example 14); format: in vivo; conditions: foliar, 192 h, 500 ppm, cabbage leaf dip, 2nd-instar larvae, 8 days after inoculation, read-out: activity level (corrected mortality rate)
Description: The compounds of formula (I), (Ia) and/or (Ib) of the present invention or salts thereof are separately dispersed in water and diluted to 500 ppm and 50 ppm. Cabbage leaves are dipped in the dispersion for about 30 seconds. After air dried, the leaves are placed in a plastic Petri dish with a diameter of 9 cm and inoculated with ten 2nd-instar larvae of Spodoptera litura, after which the dish is closed and then allowed to stand in a room at 25° C. 8 days after the inoculation, the numbers of the dead and alive insects are counted. The corrected mortality rate is calculated according to the following formula and the insecticidal activity is evaluated according to the following criteria.
[formula] [formula] • A: the corrected mortality rate is 100% • B: the corrected mortality rate is 90 to 99% • C: the corrected mortality rate is 80 to 89% • D: the corrected mortality rate is 50 to 79%

[4] = Ctenocephalides felis, adult C. felis, bovine blood with sodium heparin, membrane feeding, 48 hours post-treatment, read-out: EC50 (ingestion activity, percentage mortality, alternative method)
[5] = Ctenocephalides felis, alternative method according to Example 7, mortality at 48 hours post-treatment, read-out: C. felis membrane feeding (ingestion/blood feeding) activity EC50
[6] = alternative method according to Example 7, mortality at 48 hours post-treatment, read-out: C. felis membrane feeding (ingestion/blood feeding) activity EC50

Structure (SMILES) | EC50 (adult C. felis fleas [1]; [4]) [µM] | EC50 (adult C. felis fleas [2]) [µM] | EC50 (adult C. felis fleas [1]; [5]) [µM] | mortality at 50 ppm (Plutella xylostella) [%] | mortality at 500 ppm (Laodelphax striatellus) [%] | pest or weed control at 500 ppm (Myzus persicae) [%] | mortality at 500 ppm (Plutella xylostella) [%] | further results
CCS(=N)(=O)c1cc(-c2ccc(C3(C#N)CC3)cc2)cnc1-c1nc2cc(C(C)(F)F)cn(CC(F)F)c-2c1F (centres unmarked) [Compound 16] | 1 to 10 | – | – | – | – | – | – | –
CCS(=N)(=O)c1cc(-c2noc(C3(F)CC3)n2)cnc1-c1nc2cc(C(F)(F)C(F)(F)F)nnc2n1C (centres unmarked) [Compound 32] | < 1 | < 1 | 0.417 | 100 | – | – | – | mortality at 50 ppm (Laodelphax striatellus): 100%; pest or weed control at 50 ppm (Myzus persicae): 100%; EC50 [3]: < 10 µM
CCS(=N)(=O)c1cc(-c2noc(C3(F)CC3)n2)cnc1-c1nc2cc(C(C)(F)F)cnc2n1C (centres unmarked) [Compound 18] | – | – | – | 100 | – | – | – | mortality at 50 ppm (Laodelphax striatellus): 100%; pest or weed control at 50 ppm (Myzus persicae): 100%
CCS(=N)(=O)c1cc(-c2cnn(C3CC3)c2)cnc1-c1nc2cc(C(F)(F)C(F)(F)F)cnc2n1C (centres unmarked) [Compound 22] | < 1 | < 1 | 0.981 | 100 | – | – | – | mortality at 50 ppm (Laodelphax striatellus): 100%; pest or weed control at 50 ppm (Myzus persicae): 100%; mortality at 500 ppm (Spodoptera litura): 100%; EC50 [3]: 10 to 100 µM
CCS(=N)(=O)c1cc(-c2ccc(C3(C#N)CC3)cc2)cnc1-c1nc2cc(C(C)(F)F)cnc2n1C (centres unmarked) [Compound 2] | 1 to 10 | 1 to 10 | – | – | 100 | 100 | 100 | mortality at 500 ppm (Spodoptera litura): 100%
CCS(=N)(=O)c1cc(-c2noc(C3(C(F)(F)F)CC3)n2)cnc1-c1nc2cc(C(F)(F)C3CC3)nnc2n1C (centres unmarked) [Compound 4] | < 1 | < 1 | 0.474 | – | – | – | – | EC50 [3]: 10 to 100 µM
CC[S@](=N)(=O)c1cc(-c2noc(C3CC3)n2)cnc1-c1nc2cc(C(F)(F)C(F)(F)F)cnc2n1C [Compound 7a, (S)-[5-(5-cyclopropyl-1,2,4-oxadiazol-3-yl)-2-[3-methyl-6-(1,1,2,2,2-pentafluoroethyl)-3H-imidazo[4,5-b]pyridin-2-yl]pyridin-3-yl](ethyl)imino-lambda6-sulfanone] | – | – | – | – | – | – | – | EC50 (adult C. felis fleas [1]; [6]): 0.385 µM
CCS(=N)(=O)c1cc(-n2cc(C3CC3)cn2)cnc1-c1nc2cc(C(F)(F)C(F)(F)F)nnc2n1C (centres unmarked) [Compound 34] | – | – | – | – | 100 | 100 | 100 | mortality at 500 ppm (Spodoptera litura): 100%; EC50 [3]: 10 to 100 µM
CCS(=N)(=O)c1cc(-c2noc(C3CC3)n2)cnc1-c1nc2cc(C(C)(F)F)cnc2n1C (centres unmarked) [Compound 10] | – | – | – | – | 100 | 100 | 100 | –
CCS(=N)(=O)c1cc(-n2cc(C3(C#N)CC3)cn2)cnc1-c1nc2cc(C(F)(F)C(F)(F)F)cnc2n1C (centres unmarked) [Compound 26] | < 1 | < 1 | 0.875 | – | 100 | 100 | 100 | mortality at 500 ppm (Spodoptera litura): 100%
CC[SH](=N)(O)c1cc(-c2noc(C3CC3)n2)cnc1-c1nc2cc(C(F)(F)C(F)(F)F)nnc2n1C [Compound 8a] | – | – | – | – | – | – | – | EC50 (adult C. felis fleas [1]; [6]): 0.482 µM
CC[S@@](=N)(=O)c1cc(-c2noc(C3CC3)n2)cnc1-c1nc2cc(C(F)(F)C(F)(F)F)cnc2n1C [Compound 7b, (R)-[5-(5-cyclopropyl-1,2,4-oxadiazol-3-yl)-2-[3-methyl-6-(1,1,2,2,2-pentafluoroethyl)-3H-imidazo[4,5-b]pyridin-2-yl]pyridin-3-yl](ethyl)imino-lambda6-sulfanone] | – | – | – | – | – | – | – | EC50 (adult C. felis fleas [1]; [6]): 1.35 µM
CCS(=N)(=O)c1cc(-c2ccc(C3(C#N)CC3)cc2)cnc1-c1nc2cc(C(F)(F)F)cn(CC(F)F)c-2c1F (centres unmarked) [Compound 17] | < 1 | – | 0.33 | – | – | – | – | –
CCS(=N)(=O)c1cc(-c2noc(C3CC3)n2)cnc1-c1nc2cc(C(C)(F)F)nnc2n1C (centres unmarked) [Compound 13] | 1 to 10 | < 1 | – | 100 | – | – | – | mortality at 50 ppm (Laodelphax striatellus): 100%; pest or weed control at 50 ppm (Myzus persicae): 100%
CCS(=N)(=O)c1cc(-c2noc(C3CC3)n2)cnc1-c1nc2cc(C(F)(F)C3CC3)cnc2n1C (centres unmarked) [Compound 12] | – | – | – | 100 | – | 100 | – | –
CCS(=N)(=O)c1cc(-c2noc(C3CC3)n2)cnc1-c1nc2cc(C(F)(F)C3CC3)nnc2n1C (centres unmarked) [Compound 15] | 1 to 10 | – | – | – | 100 | 100 | 100 | –
CCS(=N)(=O)c1cc(-c2noc(C3(F)CC3)n2)cnc1-c1nc2cc(C(C)(F)F)nnc2n1C (centres unmarked) [Compound 29] | 1 to 10 | – | – | – | 100 | 100 | 100 | EC50 [3]: 10 to 100 µM
CCS(=N)(=O)c1cc(-c2ccc(C3(C#N)CC3)cc2)cnc1-n1cc2cnc(C(F)(F)F)cc2n1 (centres unmarked) [Compound 35] | < 1 | 1 to 10 | 0.771 | – | – | – | – | –
CCS(=N)(=O)c1cc(-n2cc(C3CC3)nn2)cnc1-c1nc2cc(C(F)(F)C(F)(F)F)cnc2n1C (centres unmarked) [Compound 28] | 1 to 10 | 1 to 10 | – | – | 100 | 100 | 100 | mortality at 500 ppm (Spodoptera litura): 100%
CCS(=N)(=O)c1cc(-n2cc(C3(C#N)CC3)cn2)cnc1-c1nc2cc(C(F)(F)C(F)(F)F)nnc2n1C (centres unmarked) [Compound 33] | < 1 | 1 to 10 | 0.437 | 100 | – | – | – | mortality at 50 ppm (Laodelphax striatellus): 100%; pest or weed control at 50 ppm (Myzus persicae): 100%
